Data from ChEMBL document CHEMBL5346894, “Developments of PROTACs technology in immune-related diseases” (Eur J Med Chem, 2023).
Blank lines part the entries; values can stand above or below the molecule they belong to.

Experiments:
[1] = biological target: Protein cereblon/Histone acetyltransferase KAT2A (Homo sapiens) (UniProt Q92830+Q96SW2); test: Protac activity at CRBN/GCN5 in human THP-1 cells assessed as GCN5 degradation at 3 nM measured after 10 mins by Western blot analysis relative to control; assay type: cell-based
[2] = biological target: Protein cereblon/Histone acetyltransferase KAT2B (Homo sapiens) (UniProt Q92831+Q96SW2); test: Protac activity at CRBN/PCAF in human THP-1 cells assessed as PCAF degradation at 1.5 nM measured after 10 mins by Western blot analysis relative to control; assay type: cell-based
[3] = biological target: Protein cereblon/Receptor-interacting serine/threonine-protein kinase 2 (Homo sapiens, UniProt O43353+Q96SW2); test: Protac activity at CRBN/RIPK2 in human THP-1 cells assessed as degradation of RIPK2 measured after 18 hrs by capillary immunoassay; assay type: cell-based
[4] = biological target: Protein cereblon/Indoleamine 2,3-dioxygenase 1 (Homo sapiens) (UniProt P14902+Q96SW2); test: Protac activity at CRBN/IDO1 in human HeLa cell assessed as degradation of IDO1 measured after 24 hrs by Western blot assay relative to control; assay type: cell-based
[5] = biological target: Protein cereblon/Poly [ADP-ribose] polymerase 1 (Homo sapiens) (UniProt P09874+Q96SW2); test: Protac activity at CRBN/PARP1 in human SW620 cells assessed as degradation of PARP1 at <100 nM measured after 24 hrs by Western blot analysis relative to control; assay type: cell-based
[6] = biological target: von Hippel-Lindau disease tumor suppressor/Histone deacetylase 2/Lysine-specific histone demethylase 1A/REST corepressor 1 (Homo sapiens, UniProt O60341+P40337+Q92769+Q9UKL0); test: Protac activity at VHL/LSD1/HDAC2/CoREST complex interaction in human ES1 cells assessed as induction of HDAC2 degradation by fluorescence based assay; assay type: cell-based
[7] = biological target: von Hippel-Lindau disease tumor suppressor/Histone deacetylase 3/Lysine-specific histone demethylase 1A/REST corepressor 1 (Homo sapiens, UniProt O15379+O60341+P40337+Q9UKL0); test: Protac activity at VHL/LSD1/HDAC3/CoREST complex interaction in human ES1 cells assessed as induction of HDAC3 degradation by fluorescence based assay; assay type: cell-based
[8] = biological target: von Hippel-Lindau disease tumor suppressor/Histone deacetylase 1/Lysine-specific histone demethylase 1A/REST corepressor 1 (Homo sapiens, UniProt O60341+P40337+Q13547+Q9UKL0); test: Protac activity at VHL/LSD1/HDAC1/CoREST complex interaction in human ES1 cells assessed as HDAC1 degradation by fluorescence based assay; assay type: cell-based
[9] = tested on: MOLT-4; test: Anticancer activity against human MOLT-4 cells assessed as cell growth inhibition; assay type: functional, cell-based
[10] = tested on: Jurkat; test: Anticancer activity against human Jurkat cells assessed as cell growth inhibition; assay type: functional, cell-based
[11] = tested on: HL-60; test: Anticancer activity against human HL-60 cells assessed as cell growth inhibition; assay type: functional, cell-based
[12] = tested on: HeLa; test: Anticancer activity against human HeLa cells assessed as cell growth inhibition measured after 24 hrs by MTT assay; assay type: functional, cell-based
[13] = biological target: T1, von Hippel-Lindau disease tumor suppressor/Histone deacetylase 3 (Homo sapiens, UniProt O15379+P40337); test: Protac activity at VHL/HDAC3 in human MDA-MB-468 cells assessed as HDAC3 degradation measured after 14 hrs by Western blot analysis; assay type: cell-based
[14] = biological target: T1, von Hippel-Lindau disease tumor suppressor/Histone deacetylase 3; test: Protac activity at VHL/HDAC3 in human MDA-MB-468 cells assessed as HDAC3 degradation at 125 nM measured after 8 hrs by Western blot analysis relative to control; assay type: cell-based
[15] = biological target: E3 ubiquitin-protein ligase XIAP/Receptor-interacting serine/threonine-protein kinase 2 (Homo sapiens, UniProt P98170+O43353); test: Protac activity at IAP/RIPK2 in human THP-1 cells assessed as degradation of RIPK2 measured after 18 hrs by capillary immunoassay; assay type: cell-based
[16] = biological target: von Hippel-Lindau disease tumor suppressor/Interleukin-1 receptor-associated kinase 4 (Homo sapiens, UniProt Q9NWZ3+P40337); test: Protac activity at VHL/IRAK4 in human HEK293T cells assessed as IRAK4 degradation measured after 24 hrs by immunoblotting analysis; assay type: cell-based
[17] = biological target: Protein cereblon (Homo sapiens, UniProt Q96SW2); test: Binding affinity to CRBN (unknown origin) assessed as dissociation constant by Tr-FRET assay
[18] = biological target: T2, von Hippel-Lindau disease tumor suppressor/Receptor-interacting serine/threonine-protein kinase 2 (Homo sapiens, UniProt O43353+P40337); test: Protac activity at VHL/RIPK2 in human THP-1 cells assessed as RIPK2 degradation at 10 nM measured after 16 hrs by Western blot analysis relative to control; assay type: cell-based
[19] = biological target: Receptor-interacting serine/threonine-protein kinase 2 (Homo sapiens, UniProt O43353); test: Inhibition of RIPK2 (unknown origin) by fluorescence polarization assay
[20] = biological target: T2, von Hippel-Lindau disease tumor suppressor/Receptor-interacting serine/threonine-protein kinase 2; test: Protac activity at VHL/RIPK2 in human THP-1 cells assessed as RIPK2 degradation measured after 16 hrs by Western blot analysis; assay type: cell-based

Protein cereblon/Poly [ADP-ribose] polymerase 1 (Homo sapiens), sequence (P09874 2-1014 limits assumed): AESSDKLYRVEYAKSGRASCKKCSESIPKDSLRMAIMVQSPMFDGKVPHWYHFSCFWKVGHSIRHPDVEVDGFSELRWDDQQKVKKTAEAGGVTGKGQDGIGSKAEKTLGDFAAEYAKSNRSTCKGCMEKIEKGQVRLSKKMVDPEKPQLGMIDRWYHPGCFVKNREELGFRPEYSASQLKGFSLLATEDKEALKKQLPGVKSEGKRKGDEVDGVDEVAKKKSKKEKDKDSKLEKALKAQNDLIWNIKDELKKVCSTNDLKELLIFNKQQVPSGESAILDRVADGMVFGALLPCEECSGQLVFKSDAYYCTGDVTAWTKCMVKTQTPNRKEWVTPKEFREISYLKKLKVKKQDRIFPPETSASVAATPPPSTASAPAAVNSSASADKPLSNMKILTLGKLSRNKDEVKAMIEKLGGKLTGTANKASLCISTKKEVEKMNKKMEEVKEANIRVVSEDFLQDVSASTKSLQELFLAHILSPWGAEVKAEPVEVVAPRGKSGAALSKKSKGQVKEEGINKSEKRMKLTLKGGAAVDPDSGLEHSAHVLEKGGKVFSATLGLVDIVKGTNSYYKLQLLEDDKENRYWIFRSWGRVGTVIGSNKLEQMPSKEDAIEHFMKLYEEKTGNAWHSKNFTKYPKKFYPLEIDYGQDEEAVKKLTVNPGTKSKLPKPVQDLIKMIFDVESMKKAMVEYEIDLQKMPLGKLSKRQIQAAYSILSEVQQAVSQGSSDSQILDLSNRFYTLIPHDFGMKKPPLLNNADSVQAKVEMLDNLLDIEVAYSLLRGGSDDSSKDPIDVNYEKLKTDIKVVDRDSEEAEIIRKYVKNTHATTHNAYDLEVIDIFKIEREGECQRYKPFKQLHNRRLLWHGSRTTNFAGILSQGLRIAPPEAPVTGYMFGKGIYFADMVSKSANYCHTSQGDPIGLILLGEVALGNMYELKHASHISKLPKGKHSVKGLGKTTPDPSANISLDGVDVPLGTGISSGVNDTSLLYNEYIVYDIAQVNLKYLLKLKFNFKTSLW
Protein cereblon/Poly [ADP-ribose] polymerase 1 (Homo sapiens), sequence (Q96SW2 whole entry partner): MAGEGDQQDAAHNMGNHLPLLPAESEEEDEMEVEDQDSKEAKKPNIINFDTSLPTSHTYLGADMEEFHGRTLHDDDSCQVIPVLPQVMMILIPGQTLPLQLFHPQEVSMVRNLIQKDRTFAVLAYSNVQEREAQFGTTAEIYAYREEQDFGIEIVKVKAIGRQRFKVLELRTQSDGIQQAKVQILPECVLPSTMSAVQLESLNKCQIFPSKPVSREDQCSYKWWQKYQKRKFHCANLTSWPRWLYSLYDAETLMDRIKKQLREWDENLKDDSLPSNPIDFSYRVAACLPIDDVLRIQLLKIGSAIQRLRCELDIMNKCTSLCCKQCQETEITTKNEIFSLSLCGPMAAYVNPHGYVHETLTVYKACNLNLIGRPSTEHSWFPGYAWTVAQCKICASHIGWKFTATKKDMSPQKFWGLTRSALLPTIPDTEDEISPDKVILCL
E3 ubiquitin-protein ligase XIAP/Receptor-interacting serine/threonine-protein kinase 2, sequence (P98170 whole entry): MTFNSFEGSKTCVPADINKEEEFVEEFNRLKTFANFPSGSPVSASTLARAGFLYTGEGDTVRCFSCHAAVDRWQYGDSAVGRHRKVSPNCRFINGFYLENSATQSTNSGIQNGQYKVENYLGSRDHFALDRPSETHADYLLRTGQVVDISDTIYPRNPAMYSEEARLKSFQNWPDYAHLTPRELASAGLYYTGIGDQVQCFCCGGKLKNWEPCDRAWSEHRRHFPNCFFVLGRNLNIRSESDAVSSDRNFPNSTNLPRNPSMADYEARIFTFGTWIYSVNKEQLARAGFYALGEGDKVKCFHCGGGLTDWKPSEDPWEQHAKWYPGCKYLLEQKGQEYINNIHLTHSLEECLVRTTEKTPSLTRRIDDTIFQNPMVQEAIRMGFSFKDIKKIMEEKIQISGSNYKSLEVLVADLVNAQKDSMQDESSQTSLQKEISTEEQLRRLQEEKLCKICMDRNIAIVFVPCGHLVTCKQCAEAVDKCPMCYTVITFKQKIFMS
E3 ubiquitin-protein ligase XIAP/Receptor-interacting serine/threonine-protein kinase 2, sequence (O43353 whole entry): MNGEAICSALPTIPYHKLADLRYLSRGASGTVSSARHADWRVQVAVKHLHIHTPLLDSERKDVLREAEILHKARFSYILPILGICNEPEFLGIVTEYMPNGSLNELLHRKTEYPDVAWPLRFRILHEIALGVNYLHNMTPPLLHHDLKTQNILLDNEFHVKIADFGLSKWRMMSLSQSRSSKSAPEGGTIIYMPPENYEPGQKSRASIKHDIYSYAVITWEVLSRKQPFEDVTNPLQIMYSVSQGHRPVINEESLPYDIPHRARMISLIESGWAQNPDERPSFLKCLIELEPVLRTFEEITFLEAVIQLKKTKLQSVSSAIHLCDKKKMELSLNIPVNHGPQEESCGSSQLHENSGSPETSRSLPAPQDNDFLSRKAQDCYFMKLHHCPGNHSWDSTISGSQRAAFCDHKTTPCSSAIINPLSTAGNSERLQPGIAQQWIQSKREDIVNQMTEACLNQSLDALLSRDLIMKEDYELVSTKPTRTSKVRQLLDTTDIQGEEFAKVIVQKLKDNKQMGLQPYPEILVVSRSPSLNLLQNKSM
von Hippel-Lindau disease tumor suppressor/Interleukin-1 receptor-associated kinase 4, sequence (Q9NWZ3 whole entry): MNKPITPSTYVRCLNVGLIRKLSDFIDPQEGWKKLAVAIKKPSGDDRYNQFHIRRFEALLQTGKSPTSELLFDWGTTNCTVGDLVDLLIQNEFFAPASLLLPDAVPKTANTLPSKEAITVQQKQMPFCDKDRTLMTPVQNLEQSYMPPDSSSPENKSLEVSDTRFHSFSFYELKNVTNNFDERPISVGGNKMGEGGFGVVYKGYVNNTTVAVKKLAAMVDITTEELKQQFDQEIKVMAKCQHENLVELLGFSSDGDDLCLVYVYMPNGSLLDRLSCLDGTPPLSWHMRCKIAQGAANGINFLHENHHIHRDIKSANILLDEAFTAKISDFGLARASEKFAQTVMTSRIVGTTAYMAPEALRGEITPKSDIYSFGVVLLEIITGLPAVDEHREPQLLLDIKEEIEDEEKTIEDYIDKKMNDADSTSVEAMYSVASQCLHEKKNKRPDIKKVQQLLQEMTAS
von Hippel-Lindau disease tumor suppressor/Interleukin-1 receptor-associated kinase 4, sequence (P40337 whole entry): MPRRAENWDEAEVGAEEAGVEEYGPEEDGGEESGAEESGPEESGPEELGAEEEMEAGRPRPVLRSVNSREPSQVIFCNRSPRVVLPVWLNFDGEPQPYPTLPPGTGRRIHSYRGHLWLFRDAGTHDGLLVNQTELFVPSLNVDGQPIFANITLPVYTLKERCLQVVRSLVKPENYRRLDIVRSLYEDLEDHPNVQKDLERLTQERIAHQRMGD
Protein cereblon/Histone acetyltransferase KAT2B (Homo sapiens), sequence (Q92831 whole entry, looked up): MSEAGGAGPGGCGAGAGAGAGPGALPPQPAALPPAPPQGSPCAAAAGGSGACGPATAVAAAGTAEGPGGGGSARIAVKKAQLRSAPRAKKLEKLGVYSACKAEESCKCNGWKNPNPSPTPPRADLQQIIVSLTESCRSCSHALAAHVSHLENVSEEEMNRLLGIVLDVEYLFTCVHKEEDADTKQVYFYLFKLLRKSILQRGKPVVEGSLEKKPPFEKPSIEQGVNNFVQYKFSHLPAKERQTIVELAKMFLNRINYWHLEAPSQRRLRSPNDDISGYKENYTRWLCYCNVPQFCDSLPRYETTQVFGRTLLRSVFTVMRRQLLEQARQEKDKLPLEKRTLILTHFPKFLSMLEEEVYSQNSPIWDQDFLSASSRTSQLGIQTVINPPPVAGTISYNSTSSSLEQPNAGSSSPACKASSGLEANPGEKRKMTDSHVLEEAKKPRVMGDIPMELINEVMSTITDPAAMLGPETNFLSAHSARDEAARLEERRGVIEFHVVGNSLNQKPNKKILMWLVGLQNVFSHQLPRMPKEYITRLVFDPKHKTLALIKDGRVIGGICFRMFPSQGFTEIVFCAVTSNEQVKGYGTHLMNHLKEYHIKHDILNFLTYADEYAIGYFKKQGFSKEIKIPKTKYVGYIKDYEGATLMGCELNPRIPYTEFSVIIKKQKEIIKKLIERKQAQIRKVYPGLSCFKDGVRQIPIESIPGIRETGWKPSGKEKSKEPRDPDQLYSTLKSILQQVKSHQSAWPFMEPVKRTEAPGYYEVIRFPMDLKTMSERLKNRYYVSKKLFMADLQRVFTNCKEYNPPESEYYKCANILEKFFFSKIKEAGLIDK
Protein cereblon/Histone acetyltransferase KAT2B (Homo sapiens), sequence (Q96SW2 whole entry, looked up): as the sequence (Q96SW2 whole entry partner) above
Protein cereblon, sequence (Q96SW2 whole entry): as the sequence (Q96SW2 whole entry partner) above

Emax [4]: 93%
SMILES: O=C1CCC(N2C(=O)c3cccc(NCCOCCOCCOCCOCCOCCOCCOCCNCCNc4nonc4/C(=N/O)Nc4ccc(F)c(Br)c4)c3C2=O)C(=O)N1 (stereo not given)

Activity [5]: 80%
SMILES: O=C1CCC(N2Cc3c(NCCCCCCCCCCCNC(=O)c4cc(Cc5n[nH]c(=O)c6ccccc56)ccc4F)cccc3C2=O)C(=O)N1 (stereo not given)

IC50 [6]: 500 nM
IC50 [7]: 500 nM
IC50 [8]: 500 nM
SMILES: Cc1ncsc1-c1ccc(CNC(=O)[C@@H]2C[C@@H](O)CN2C(=O)[C@@H](NC(=O)CCCCCCCCCCC(=O)Nc2ccc(C(=O)Nc3ccccc3N)cc2)C(C)(C)C)cc1

IC50 [12]: 4.3 nM
SMILES: CC1(NCc2cn(CCOCCOCCOCCOCCNc3cccc4c3C(=O)N(C3CCC(=O)NC3=O)C4=O)nn2)CCN(c2cnc(-c3cccc(Cl)c3Cl)c(N)n2)CC1 (stereo not given)

DC50 [15]: 2 nM
SMILES: CN[C@@H](C)C(=O)N[C@H](C(=O)N1Cc2cc(OCCOCCOCCOCCOc3cc4nccc(Nc5ccc6scnc6c5)c4cc3S(=O)(=O)C(C)(C)C)ccc2C[C@H]1C(=O)N[C@@H]1CCCc2ccccc21)C(C)(C)C

The remaining lines, values behind:

SMILES: CN1C[C@H](Nc2cnn(C)c(=O)c2Br)C[C@H](c2ccc(C(=O)N(C)CCCN(C)c3ccc(CCCOc4cccc5c4C(=O)N(C4CCC(=O)NC4=O)C5=O)cc3)cc2)C1 (stereo not given in full)
Activity [1]: 50%
Activity [2]: 50%

SMILES: CC(C)(C)S(=O)(=O)c1cc2c(Nc3ccc4scnc4c3)ccnc2cc1OCCOCCOCCOCCOCC(=O)Nc1cccc2c1CN(C1CCC(=O)NC1=O)C2=O (stereo not given)
DC50 [3]: 2.5 nM

SMILES: O=C(/C=C/c1cccnc1)NCCCCC1CCN(C(=O)c2ccc(N3CCN(CCCCCC#Cc4cccc5c4CN(C4CCC(=O)NC4=O)C5=O)CC3)cc2)CC1 (stereo not given)
IC50 [9]: 2.96 nM
IC50 [10]: 4.46 nM
IC50 [11]: 8.56 nM

SMILES: CCCNNC(=O)c1ccc(-c2ccc(NC(=O)CCCCCCC(=O)N[C@H](C(=O)N3C[C@H](O)C[C@H]3C(=O)N[C@@H](C)c3ccc(-c4scnc4C)cc3)C(C)(C)C)cc2)cc1
DC50 [13]: 42 nM
Activity [14]: 70%

SMILES: CC(C)Nc1cc(-n2ccc3cc(C#N)cnc32)ncc1C(=O)N[C@H]1CC[C@H](C(=O)NCCOCCNC(=O)COc2cccc3c2C(=O)N(C2CCC(=O)NC2=O)C3=O)CC1 (stereo not given in full)
DC50 [16]: 405 nM
Kd [17]: 490 nM

SMILES: C=C([C@@H](NC(=O)COCCOCCOCCOCCOc1cc2nccc(Nc3ccc4scnc4c3)c2cc1S(=O)(=O)C(C)(C)C)C(C)(C)C)N1C[C@H](O)C[C@H]1C(=O)NCc1ccc(-c2scnc2C)cc1
Emax [18]: > 95%
IC50 [19]: 10 nM
DC50 [20]: 1.4 nM
